Laboratory results published in ChEMBL document CHEMBL1135053, “Affinity-driven selection of tripeptide inhibitors of ribonucleotide reductase” (Bioorg Med Chem Lett, 2002).
Residues, ends and D or L forms follow the SMILES beside them. *: point of attachment. Fmoc = O=C(OCC1c2ccccc2-c2ccccc21)*

Assay: Mouse ribonucleotide reductase (mRR) activity was determined by relative dissociation constant which was assayed for binding activity to mR1

Row | Structure (SMILES) | Relative Kd
1 | O=C(N[C@H](C(=O)O)c1ccccc1)OCC1c2ccccc2-c2ccccc21 | 31
2 | CC(=O)N[C@@H](Cc1ccccc1)C(=O)N[C@H](C(=O)N[C@@H](CC(C)C)C(=O)N[C@@H](CC(=O)O)C(=O)N[C@@H](C)C(=O)N[C@@H](CC(=O)O)C(=O)N[C@@H](Cc1ccccc1)C(=O)O)[C@@H](C)O (Ac-FTLDADF-OH) | 1
3 | O=C(N[C@@H](Cc1ccccc1)C(=O)O)OCC1c2ccccc2-c2ccccc21 | 22

Continued, values first:

Row | Relative Kd | Structure (SMILES)
4 | 18 | O=C(N[C@@H](Cc1c[nH]c2ccccc12)C(=O)O)OCC1c2ccccc2-c2ccccc21
5 | 38 | CC(C)C[C@H](NC(=O)OCC1c2ccccc2-c2ccccc21)C(=O)O
6 | 1 | O=C(N[C@@H](Cc1c[nH]c2ccccc12)C(=O)N[C@@H](Cc1ccccc1)C(=O)N[C@@H](Cc1ccccc1)C(=O)O)OCC1c2ccccc2-c2ccccc21 (Fmoc-Trp-Phe-Phe-OH)
